Some results are limits rather than exact numbers.

In turn, `COc1cc(Nc2c(C#N)cnc3cc4cc(OCCN5CCC(O)CC5)c(OC)cc4cc23)c(Cl)cc1C` came in with a melting point of 210 to 215 °C.
`O=C(c1ccccc1)c1ccc(-c2nc(COc3ccc(CCCCn4ccnc4)cc3)co2)cc1` returned a melting point of 91 to 92 °C.
Compound `CON1C(=O)CC2(CCN(C(=O)OCCBr)CC2)C1=O` registered a melting point of 134 °C.
`Cc1c(CCBr)c2cccc3c2n1CCS3` gave a melting point of 94 °C.
Under `COC(=O)c1cnnc2c(C)cccc12` stands 90 to 91 °C.
As for `Cc1ccc(-c2nc(Cl)cc(N3CCN(C)CC3)n2)cc1`, the melting point was in the range of 93 to 95 °C.
Take `O=C(CCc1ccc(CNCc2ccccc2)cc1)Nc1ccc(-c2ccc(Cl)cc2)cc1`: the melting point worked out at 176 °C.
The compound `CC(C)c1ccc(C2COc3ccc(NC(=O)CC(C)(C)C)cc32)cc1` (stereo not drawn) gave a melting point of 119 to 120 °C.
To `CC(Cn1ccc(C(F)(F)F)n1)n1nnc2cc3c(=O)n(C(C)Cn4ncnn4)nnc3cc2c1=O` (stereo not drawn) belongs 95 to 97 °C.
On to `C=CCOc1cc(-c2cc(=O)c3c(OC)cc(OCC4=COC(C)(C)O4)cc3o2)ccc1OC`, for which the melting point was 156 °C.
To `C/C(=N\OCCOc1ccc(C(=O)O)cc1Cl)c1ccc(C(C)(C)C)cc1` belongs 167 to 169 °C; to `CCCCn1cc(C(=O)C(=O)O)c2cc(-c3ccc(C(F)(F)F)cc3)ccc21`, 149 °C.
For the compound `CCOc1ccc(C2(O)CCN(CC(O)c3ccc(O)c(C)c3)CC2)cn1` (stereo not drawn), the melting point is 189 °C.
To `CN(C)CCN(C)CC(=O)N1c2ccccc2N(C)C(=O)c2cnc(-c3ccccc3)nc21` belongs 125 °C.
In the case of `O=S(=O)(Nc1ncncc1-c1ccc(Cl)cc1)c1ccc(O)cc1`, the melting point was 231 to 232 °C.
In turn, `Cc1cc(CC(C)NCCC(c2ccccc2)c2ccccc2)ccc1O` (stereo not drawn) returned a melting point of 115 to 118 °C.
Compound `OC1(c2ccccc2)CCN(CCC2Cc3ccccc3O2)CC1` (stereo not drawn) came in with a melting point of 107 °C.
Under `CCCCOc1c(CNC(=O)OC(C)(C)C)n(CC2CC2)c(=O)c2ccc(Br)cc12` stands 118 to 119 °C.
`COc1ccccc1N1Sc2ccccc2CC1=O` displayed a melting point of 171 °C.
For the compound `O=C(NCc1ccc(Cl)cc1)c1cnc2ccc(I)cn2c1=O`, the melting point fell in the range of 191 to 194 °C.
As to `COc1ccc(CNc2cc3c(Nc4ccc(F)c(Br)c4)ncnc3cn2)cc1`, the melting point was in the range of 181 to 184 °C.
Under `O=C(OCc1ccccc1)c1cc2ccccc2[nH]1` stands 136 °C.
`COc1ccc(C(CO)CNC(=O)C(N)=O)cc1OC1CCCC1` (stereo not drawn) yielded a melting point of 176 °C.
`O=c1oc(-c2ccc3c(c2)OCCO3)cc(O)c1C(CC1CC1)SC1CCCC1` (stereo not drawn): the melting point fell in the range of 80 to 82 °C.
Take `COc1ccc(S(=O)(=O)Nc2cccc3c2Nc2ccc(C#N)cc2CN3)cc1`: the melting point is 105 to 107 °C.
`C#CCC(C)(C(=O)O)C(=O)O` returned a melting point of 135 °C.
To `CCOC(Cc1ccc(OCCN2C(=O)COc3ccccc32)cc1)C(=O)O` (stereo not drawn) belongs 90 to 93 °C.
Compound `CC(=O)OC1CC2(C)C(=O)CCC2C2C(C)CC3=CC(=O)CCC3C12` (stereo not drawn) showed a melting point of 183 °C.
For `O=C(O)CON=CCCl`, the melting point is 66 to 68 °C.
Under `Clc1cc(Cl)c2nc(SCc3ccccc3)nn2c1` stands 115 to 116 °C.
Under `COc1ccc(C(=O)Nc2ccccc2/C=C/c2ccnc(C)c2)cc1` stands 183 to 184 °C; under `Brc1ccc(OCCCCCN2CCN(c3nccs3)CC2)cc1`, 73 to 75 °C.
Take `CC1=C(C#N)C(=C(C#N)C#N)OC1(C)c1ccc(Cl)c(Cl)c1` (stereo not drawn): the melting point lay within 226 to 229 °C.
Under `Nc1nc2c(c3[nH]cnc13)CCCC2` stands greater than 300 °C.
To `Cc1c(NC(=O)CC(C)(C)C)c(C)c2c(c1C(C)O)OCC2c1ccc(C(C)C)cc1` (stereo not drawn) belongs 156 to 157 °C.
For the compound `CC(C)Sc1ccc(NC(=O)c2cc(Cl)ccc2NS(=O)(=O)c2ccc(Cl)cc2)cc1`, the melting point fell in the range of 168 to 169 °C.
Consider `CC(C)(C)NC(=O)[C@@H]1CCCN1C(=O)[C@@H](O)[C@@H](N)Cc1ccccc1`, for which the melting point was in the range of 159 to 161 °C.
To `N#Cc1ccc(NC(=O)c2ccc(-n3nc(C(F)(F)F)cc3C(F)(F)F)cc2)cc1` belongs 192 to 193 °C; to `O=S(=O)(c1ccccc1)c1cc2cc(Cl)ccc2[nH]1`, 137 to 138 °C.
To `CCCCNS(=O)(=O)CC(O)C(O)C(CC1CCCCC1)NC(=O)c1cnccn1` (stereo not drawn) belongs 178 to 180 °C; to `O=C(O)Cn1ccc(=O)n(Cc2cccc([N+](=O)[O-])c2)c1=O`, 161 to 162 °C.
Under `CN(C)CCOc1ccc(C=NO)cc1` stands 95 to 96 °C; under `CCOC(=O)C1CC(O)CN1C(=O)c1ccc2c(c1)OCO2` (stereo not drawn), 98 °C; under `COC1CN(C(=O)c2cnn(C)c2C(=O)Nc2ccn3nc(-c4ccccc4)nc3c2)C1`, 269 to 270 °C.
For `COC(=O)C(NS(=O)(=O)c1ccc(-c2ccc(NC(=O)c3oc4cccc(CO[Si](C)(C)C(C)(C)C)c4c3C)cc2)cc1)C(C)C` (stereo not drawn), the melting point was 204 to 206 °C.
For the compound `NC(=O)[C@H](Cc1ccccc1)N1C(=O)c2ccccc2C1=O`, the melting point is 211 to 215 °C.
The compound `COC(=O)CCON1C(C)(C)CC(OC(=O)c2ccccc2C(=O)OC2CC(C)(C)N(OCCC(=O)OC)C(C)(C)C2)CC1(C)C` returned a melting point of 117 to 118 °C.
Compound `CCC(=O)OCC(=O)C1(OC(=O)c2ccccc2)CCC2C3CC(C)C4=CC(=O)C=CC4(C)C3C(O)CC21C` (stereo not drawn) registered a melting point of 241 °C.
To `O=C(O)c1cn(CC2CC2)c2c(F)c(F)c(F)cc2c1=O` belongs 223 to 255 °C.
To `CC(=O)OC1(C)CCC2C3C(C#N)CC4=CC(=O)CCC4(C)C3CCC21C` (stereo not drawn) belongs 211 to 216 °C.
To `CCc1nnc(NC(=O)C(c2ccccc2)c2ccccc2)o1` belongs 123 to 125 °C; to `O=S(=O)(NCCCCOc1ccc(-n2cnnn2)cc1)c1ccc(Br)cc1`, 109 to 110 °C.
`CN1C(=O)C2(COc3cc4c(cc32)OCCO4)c2c(NC(=O)C3CCCC3)cccc21` (stereo not drawn) came in with a melting point of 196 to 198 °C.
`CCCCOC(=O)[C@H]1CN(c2cc(F)c(N3CCOCC3)c(F)c2)C(=O)O1` showed a melting point of 99 to 100 °C.
Under `CNC(=O)[C@H]1CN(c2ccc3c(c2)sc(=O)n3C(C)C)C(=O)O1` stands 172 to 174 °C; under `COc1ccc(/C=C(\C)C(=O)O)cc1`, 178 to 182 °C.
Under `CCCCCCCCCCC1COC(=O)N1` (stereo not drawn) stands 31.5 to 32.5 °C; under `CNc1cc2cnnn2c(C)n1`, 162 to 164 °C; under `O=c1c2cc([N+](=O)[O-])ccc2nc2n1CS(=O)(=O)N2`, greater than 300 °C.
Regarding `O=[N+]([O-])c1c(Cl)cc(-c2n[nH]cc2Cl)cc1Cl`, the melting point was determined as 177 °C.
To `CC(=O)Nc1cccc(-c2ccc3nc(-c4cccnc4N)n(-c4ccc(CNS(=O)(=O)c5ccccc5)cc4)c3n2)c1` belongs 180 to 182 °C.
Under `Cc1ccc2c(c1)[nH]c(=O)n2C1CCN(C2CCN(C(=O)OC(C)(C)C)CC2)CC1` stands 210 to 211 °C.
Under `Oc1cccc2nc(Cc3ccccc3)[nH]c12` stands 172 to 174 °C.
Compound `O=C(O)/C=C/c1ccc(-c2nc3c(=O)n(CCC4CCCCCC4)c(=O)n(CCC4CCCCCC4)c3[nH]2)cc1` showed a melting point greater than 250 °C.
Take `COc1ccc2c(-c3ccccc3F)noc2c1C`: the melting point lay in the range of 105 to 108 °C.
To `CC(Br)C(=O)c1cc2c(Cl)cccc2s1` (stereo not drawn) belongs 104 to 106 °C.
Regarding `O=c1c2ccc(Cl)cc2[nH]c2c(=O)n(-c3ccc(Cl)cc3Cl)nc(O)c12`, the melting point is 342 to 343 °C.
On to `COc1ccc2nccc(C(=O)CC[C@@H]3CCN(CC#Cc4cc(F)cc(F)c4F)C[C@@H]3C(=O)O)c2c1`, for which the melting point was found to be 70 °C.
To `CCOC(=O)CN1CC(=O)N(C)c2ccc(N)cc2C1=O` belongs 118 to 119 °C.
Under `CSc1nc2ccnn2c(NCc2ccco2)c1C#N` stands 110 °C; under `CCNc1nc(=O)n(Cc2ccc(OC)c(OC3CCCC3)c2)c2nc(C(C)C)[nH]c12`, 110 to 115 °C.
Under `CNC(=O)C1Cc2c(n(C)c3ccc(OC)cc23)C1` (stereo not drawn) stands 164 to 165 °C; under `O=C(CC1CCN(Cc2ccccc2)CC1)Nc1noc(C2CN3CCC2CC3)n1` (stereo not drawn), 133 to 134 °C; under `O=C(O)c1cccc(-c2cccc(Oc3ccc(Cl)c(Cl)c3)n2)c1`, 230 to 231 °C.
The compound `COC(=O)CC[C@H](NC(=O)c1ccc(NCCc2c(N(C(C)=O)C(C)=O)nc(NC(C)=O)[nH]c2=O)cc1)C(=O)OC` showed a melting point of 168 to 178 °C.
`Cc1cc(C=NNC(N)=S)ncc1N` gave a melting point of 235 to 236 °C.
Under `CC(=O)CCC1(C(C)C)Cc2cc(OCC(=O)O)c(Cl)c(Cl)c2C1=O` (stereo not drawn) stands 125 to 128 °C; under `Cc1ccc(S(=O)(=O)N2CC3=CC(=O)CC3C2)cc1` (stereo not drawn), 147 to 149 °C.
To `CCCCc1c(C(=O)c2ccc(O)cc2)c2cc([N+](=O)[O-])ccc2n1C` belongs 198 °C; to `COc1ccc(CS(=O)(=O)/C(=C/c2c(OC)cc(OC)cc2OC)C(=O)c2ccc(OC)cc2)cc1`, 60 to 62 °C; to `CC1CN(c2ccc(Nc3cc(Br)cn(C)c3=O)nc2)C1`, 135 to 136 °C.
Under `CC(=O)Oc1ccc(C(=O)O)cc1C(C)(C)C` stands 123 to 125 °C; under `CCOC(=O)c1cc([N+](=O)[O-])c2ccccn2c1=O`, 169 to 170 °C.
In the case of `O=C(O)CCN1CCCCC1=O`, the melting point was 105 to 110 °C.
Consider `COc1ccc(-c2nc3ccc(OC(F)(F)F)cc3[nH]2)cc1`, for which the melting point was in the range of 200 to 202 °C.
Compound `CC(C)(C)c1ccccc1N1CCN(C(=O)C2CCC(=O)N2CC(=O)O)CC1` (stereo not drawn) displayed a melting point of 273 °C.
With `CC(C)c1nc(C(C)C)c(CN2CCOCC2)c(-c2ccc(F)cc2)c1CO`, the melting point lay in the range of 93.5 to 95.5 °C.
To `O=Cc1c[nH]c2cccc(OCC3CO3)c12` (stereo not drawn) belongs 108 to 110 °C.

Source of the values: a melting point compilation (Tetko et al.; mined from patent text by program, amines drawn as free bases though some values may be those of a salt).
